The source of these data is patent publication US5578445A, “In vitro method of evaluating the effects of a substance” (priority 1991, dated 1996).

One assay relates to ZR 75-1. The assay can be described thus: Proliferation, amount of ATP after 6 days, ZR 75-1. It counts as cell-based, human. On the procedure: The growth is determined by measuring the amount of ATP in the cells after incubation with ligands for 6 days. […]
Samples of the cells ZR 75-1 (8000 cells/well) and MCF7 (4000 cells/well), respectively, were distributed into microtiter plates having 96 wells.
The following hormone additions were made:
The medium was replaced by fresh medium of the same composition as on day 6, and hormone additions as on day 6.
6 days after hormone addition the number of cells and their morphology were investigated. Medium from each well was poured off. To each well was added 100 μl 1% TCA (trichloro acetic acid).

A further assay deals with T1, estrogen receptor (Homo sapiens, UniProt P03372).
T1 sequence (P03372 1-595): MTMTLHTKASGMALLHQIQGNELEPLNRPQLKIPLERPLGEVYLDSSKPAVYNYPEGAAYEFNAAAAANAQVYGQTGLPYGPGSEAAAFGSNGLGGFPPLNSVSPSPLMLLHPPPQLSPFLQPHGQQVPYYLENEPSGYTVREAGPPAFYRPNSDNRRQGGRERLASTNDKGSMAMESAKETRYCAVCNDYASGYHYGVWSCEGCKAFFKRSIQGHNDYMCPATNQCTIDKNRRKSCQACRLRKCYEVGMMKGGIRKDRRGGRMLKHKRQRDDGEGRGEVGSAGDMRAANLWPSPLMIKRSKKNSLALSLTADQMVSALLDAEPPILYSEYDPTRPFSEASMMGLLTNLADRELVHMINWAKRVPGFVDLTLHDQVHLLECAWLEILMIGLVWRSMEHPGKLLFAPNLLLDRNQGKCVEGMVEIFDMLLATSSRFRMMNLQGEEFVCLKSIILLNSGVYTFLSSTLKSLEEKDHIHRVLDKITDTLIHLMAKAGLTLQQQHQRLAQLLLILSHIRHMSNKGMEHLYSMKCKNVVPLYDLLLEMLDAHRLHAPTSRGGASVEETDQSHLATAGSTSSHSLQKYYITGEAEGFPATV
As to the kind of experiment: Cathepsin D secretion, additional set of experiments, ZR 75-1 in 96-well trays, Cath D RIA. How it is done: The amount of Cath D secreted into the medium was determined with the aid of a commercial RIA (ELSA-CATD-D from CIS Bio-industries, Gif-sur-Yvette, France).
Samples of the cells ZR 75-1 and MCF7, respectively, were distributed into plastic petridishes (suitable for the culturing of mammalian cells).
Samples of the cells ZR 75-1 (4×10^4 cells/well) and MCF7 (2.5×10^4 cells/well), respectively, were distributed in 96-well trays. The cells were distributed in the same medium as used on day 1.
The wells were washed with 100 μl Coon's medium/well. The first medium was replaced by the second medium (B) without 1% FCS. The following hormone additions were made:
48 hours after the hormone addition the number of cells and their morphology were investigated. Medium from each well was transferred to Eppendorf tubes. The possible amount of Cath D in the medium samples was analyzed with the aid of a commercial Cath D RIA (ELSA-CATH-D).

As for `O=C(c1ccc(OCCN2CCCC2)cc1)c1c(-c2ccc(O)cc2)sc2cc(O)ccc12` [LY 117018], the inhibition of growth result in the assay with ZR 75-1 (0.1 nM E2 and 10 nM LY 117018) is “inhibited down to the same level as in the absence of added hormone”. For the same compound, the function on growth result in the assay with ZR 75-1 (10^-7 M LY 117018, presence of 10^-10 M E2) is recorded as “functions as an antagonist”. In addition, the activity at 1 µM with ZR 75-1 (Homo sapiens, ZR-75-1, 144 h, + 10^-6 M LY 117018, -E2, 6 days, read-out: relative amount of ATP (no hormone added = 1)) is 69%. The activity at 0.1 µM with ZR 75-1 (Homo sapiens, ZR-75-1, 144 h, + 10^-7 M LY 117018, -E2, 6 days, read-out: relative amount of ATP (no hormone added = 1)) amounted to 99%. In addition, the activity at 0.01 µM with ZR 75-1 (Homo sapiens, ZR-75-1, 144 h, + 10^-8 M LY 117018, -E2, 6 days, read-out: relative amount of ATP (no hormone added = 1)) came out at 89%. Moreover, the activity at 0.001 µM with ZR 75-1 (Homo sapiens, ZR-75-1, 144 h, + 10^-9 M LY 117018, -E2, 6 days, read-out: relative amount of ATP (no hormone added = 1)) came out at 103%. The “antagonist strength compared with Tamoxifen, growth” value in the assay on ZR 75-1 (presence of 0.1 nM E2) is on record as “stronger antagonist than Tamoxifen”. For the same compound, on estrogen receptor (10 nM LY 117018 and 0.1 nM E2), the “inhibition of the expression of Cath D” value is on record as “inhibited down to same level as in the absence of added hormone”. Moreover, the “function on Cath D expression” value at estrogen receptor (10^-8 M LY 117018, presence of 10^-10 M E2) was “functions as an antagonist”. The “antagonist strength compared with Tamoxifen, Cath D” value on estrogen receptor (presence of 0.1 nM E2) is listed as “stronger antagonist than Tamoxifen”. Besides, the “influence on the Cath D secretion” value on estrogen receptor (substance alone, without E2) is “do not have an influence”.
